Biological target: T1, ΔF508-CFTR (Homo sapiens, UniProt P13569, DEL508-508)
T1 construct: expressed in transfected cells
Experiment: Membrane potential optical assay (FRET voltage-sensor dyes, VIPR), identification of potentiator compounds
Format: cell-based
Conditions: Table 3; assay not given
Outline: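 Potentiator screen measured membrane potential via FRET between CC2-DMPE donor and DiSBAC2(3), read on VIPR II. Compound went in with the first addition of chloride-free gluconate bath; cells were ΔF508-CFTR-expressing NIH3T3 mouse fibroblasts, temperature-corrected at 27 °C for 24 h.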

T1 sequence (P13569 with tags, fused parts or gaps DEL508-508): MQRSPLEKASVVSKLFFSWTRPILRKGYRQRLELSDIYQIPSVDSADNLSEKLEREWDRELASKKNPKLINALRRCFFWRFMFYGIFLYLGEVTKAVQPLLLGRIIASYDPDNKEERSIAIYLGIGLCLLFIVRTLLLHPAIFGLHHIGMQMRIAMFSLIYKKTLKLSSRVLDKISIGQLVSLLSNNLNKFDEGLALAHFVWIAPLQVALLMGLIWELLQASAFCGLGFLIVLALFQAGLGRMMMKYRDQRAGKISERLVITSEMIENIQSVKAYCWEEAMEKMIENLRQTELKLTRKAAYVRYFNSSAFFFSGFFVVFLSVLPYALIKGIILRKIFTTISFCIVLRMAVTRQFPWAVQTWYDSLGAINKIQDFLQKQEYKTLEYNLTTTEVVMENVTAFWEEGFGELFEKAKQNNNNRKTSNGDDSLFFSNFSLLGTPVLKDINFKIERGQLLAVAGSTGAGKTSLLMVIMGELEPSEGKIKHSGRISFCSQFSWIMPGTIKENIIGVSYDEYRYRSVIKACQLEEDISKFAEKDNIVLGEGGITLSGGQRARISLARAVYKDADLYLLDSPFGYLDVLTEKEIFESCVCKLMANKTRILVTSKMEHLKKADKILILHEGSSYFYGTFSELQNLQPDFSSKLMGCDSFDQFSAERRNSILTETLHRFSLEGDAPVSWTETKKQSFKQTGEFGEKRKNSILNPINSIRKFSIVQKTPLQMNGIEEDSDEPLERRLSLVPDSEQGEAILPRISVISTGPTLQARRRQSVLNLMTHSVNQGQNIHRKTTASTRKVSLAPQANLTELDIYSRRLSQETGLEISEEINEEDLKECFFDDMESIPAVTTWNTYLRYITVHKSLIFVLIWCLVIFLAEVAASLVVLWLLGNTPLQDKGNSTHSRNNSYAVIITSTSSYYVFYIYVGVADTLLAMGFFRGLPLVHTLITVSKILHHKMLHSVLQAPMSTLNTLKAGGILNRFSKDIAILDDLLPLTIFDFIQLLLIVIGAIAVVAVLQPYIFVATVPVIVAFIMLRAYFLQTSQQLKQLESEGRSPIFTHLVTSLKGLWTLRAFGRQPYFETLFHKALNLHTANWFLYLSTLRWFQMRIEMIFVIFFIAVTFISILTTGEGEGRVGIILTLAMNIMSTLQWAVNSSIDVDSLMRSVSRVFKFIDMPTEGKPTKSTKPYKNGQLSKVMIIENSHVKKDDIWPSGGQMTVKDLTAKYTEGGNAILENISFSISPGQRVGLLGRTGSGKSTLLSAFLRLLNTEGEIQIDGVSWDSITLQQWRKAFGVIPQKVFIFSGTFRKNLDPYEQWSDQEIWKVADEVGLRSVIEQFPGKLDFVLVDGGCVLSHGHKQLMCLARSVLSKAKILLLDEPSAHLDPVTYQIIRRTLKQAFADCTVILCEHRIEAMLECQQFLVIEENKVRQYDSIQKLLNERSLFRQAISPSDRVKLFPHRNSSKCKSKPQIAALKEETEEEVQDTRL

Row | Compound | EC50 [µM]
1 | CCCc1ccc(NC(=O)c2c[nH]c3ccccc3c2=O)cc1N(C)C [Compound 462, N-(3-dimethylamino-4-propyl-phenyl)-4-oxo-1H-quinoline-3-carboxamide] | < 10
2 | CCc1ccc(NC(=O)c2c[nH]c3ccccc3c2=O)cc1 [Compound 463, N-(4-ethylphenyl)-4-oxo-1H-quinoline-3-carboxamide] | < 10

Same assay, conditions: Table 3; assay not given; read-out: % Activity (% Efficacy, relative efficacy)

Row | Compound | Emax [%]
3 | C=Cc1ccc(NC(=O)c2c[nH]c3ccccc3c2=O)cc1 [Compound 452, 4-oxo-N-(4-vinylphenyl)-1H-quinoline-3-carboxamide] | 25 to 100
4 | Nc1cc(NC(=O)c2c[nH]c3ccccc3c2=O)ccc1Cl [Compound 453, N-(3-amino-4-chloro-phenyl)-4-oxo-1H-quinoline-3-carboxamide] | 25 to 100
5 | Cc1ccc(-c2ccccc2)cc1NC(=O)c1c[nH]c2ccccc2c1=O [Compound 454, N-(2-methyl-5-phenyl-phenyl)-4-oxo-1H-quinoline-3-carboxamide] | < 25
6 | O=C(Nc1ccc(C23CC4CC(CC(C4)C2)C3)cc1)c1c[nH]c2ccccc2c1=O [Compound 455, N-[4-(1-adamantyl)phenyl]-4-oxo-1H-quinoline-3-carboxamide] | 25 to 100
7 | O=C(Nc1cccc(SC(F)(F)F)c1)c1c[nH]c2ccccc2c1=O [Compound 456, 4-oxo-N-[3-(trifluoromethylsulfanyl)phenyl]-1H-quinoline-3-carboxamide] | 25 to 100
8 | O=C(Nc1ccc(N2CCOCC2)cc1)c1c[nH]c2ccccc2c1=O [Compound 457, N-(4-morpholinophenyl)-4-oxo-1H-quinoline-3-carboxamide] | < 25
9 | CC(C)(C)c1ccc(NC(=O)c2c[nH]c3ccccc3c2=O)cc1OCCO [Compound 458, N-[3-(2-hydroxyethoxy)-4-tert-butyl-phenyl]-4-oxo-1H-quinoline-3-carboxamide] | 25 to 100
10 | Cc1ccccc1NC(=O)c1c[nH]c2ccccc2c1=O [Compound 459, N-(o-tolyl)-4-oxo-1H-quinoline-3-carboxamide] | 25 to 100
11 | CCCCOC(=O)NCC(C)(C)c1ccc(NC(=O)c2c[nH]c3ccccc3c2=O)cc1 [Compound 460, [2-methyl-2-[4-[(4-oxo-1H-quinolin-3-yl)carbonylamino]phenyl]-propyl]aminoformic acid butyl ester] | 25 to 100
12 | O=C(Nc1ccccc1-c1ccccc1)c1c[nH]c2ccccc2c1=O [Compound 461, 4-oxo-N-(2-phenylphenyl)-1H-quinoline-3-carboxamide] | 25 to 100
13 | CCCc1ccc(NC(=O)c2c[nH]c3ccccc3c2=O)cc1N(C)C [Compound 462, N-(3-dimethylamino-4-propyl-phenyl)-4-oxo-1H-quinoline-3-carboxamide] | 25 to 100
14 | CCc1ccc(NC(=O)c2c[nH]c3ccccc3c2=O)cc1 [Compound 463, N-(4-ethylphenyl)-4-oxo-1H-quinoline-3-carboxamide] | 25 to 100
15 | CC(C)(C)c1cc(C(C)(C)C)c(NC(=O)c2c[nH]c3cccc(O)c3c2=O)cc1O [Compound 464, 5-hydroxy-N-(5-hydroxy-2,4-ditert-butyl-phenyl)-4-oxo-1H-quinoline-3-carboxamide] | 25 to 100
16 | CC(C)(C)OC(=O)NCc1cc(NC(=O)c2c[nH]c3ccccc3c2=O)ccc1C(C)(C)C [Compound 465, [5-[(4-oxo-1H-quinolin-3-yl)carbonylamino]-2-tert-butyl-phenyl]methylaminoformic acid tert-butyl ester] | 25 to 100
17 | CC(C)c1cccc(C(C)C)c1NC(=O)c1c[nH]c2ccccc2c1=O [Compound 466, N-(2,6-diisopropylphenyl)-4-oxo-1H-quinoline-3-carboxamide] | 25 to 100
18 | O=C(Nc1ccc2c(c1)CCO2)c1c[nH]c2ccccc2c1=O [Compound 467, N-(2,3-dihydrobenzofuran-5-yl)-4-oxo-1H-quinoline-3-carboxamide] | < 25
19 | Cn1cc(C(=O)Nc2ccccc2)c(=O)c2ccccc21 [Compound 468, 1-methyl-4-oxo-N-phenyl-1H-quinoline-3-carboxamide] | < 25
20 | O=C(Nc1ccccc1-c1ccccc1)c1c[nH]c2cc(C(F)(F)F)ccc2c1=O [Compound 469, 4-oxo-N-(2-phenylphenyl)-7-(trifluoromethyl)-1H-quinoline-3-carboxamide] | 25 to 100
21 | O=C(Nc1ccc(Sc2ccccc2)cc1)c1c[nH]c2ccccc2c1=O [Compound 470, 4-oxo-N-(4-phenylsulfanylphenyl)-1H-quinoline-3-carboxamide] | 25 to 100

From patent US8802700B2 (Vertex Pharmaceuticals Incorporated, priority 2010, dated 2014)
